Km and Ki data for twelve molecules are collected here from ChEMBL document CHEMBL1133199, “Synthesis and uptake of nitric oxide-releasing drugs by the P2 nucleoside transporter in Trypanosoma equiperdum” (Bioorg Med Chem Lett, 2000).

B1: Adenosine transporter 1 (Trypanosoma brucei), Q9Y0I0 (protein)
chain: MLGFDSANEFIVYVTFLFFGMSVVVVTNSIFSMPFFFIEYYKYAQGKPDAKPEDPKFWKHMFTYYSIAAFLVELVLASLMLTPIGRRISVTVRLGVGLVIPIVLVFSVMMVTIVTTTETGAKVTIMLIAIANGVAMTLCDAGNAALIAPFPTKFYSSVVWGIAVCGVVTSFFSIVIKASMGGGYHNMLIQSRIYFGLVMFMQVISCALLVLLRKNPYAQKYAAEFRYAARKGIDDKGADGDEGNGAAKGPADQDDDPHGGDDTDKGNVMTATVDPDTMKDMDQVENITTSQQMLMARVWNVFWRVWPMLFACFMVFFTTFLVYPAVYFAIKADTGDGWYLTIAAALFNLGDFLSRLCLQFKALHVSPRWVLIGTFARMLLIIPLVLCVRSIITGPWLPYILVHAWGFTYGYYGGISQIYAPRTGSLTTAGERSLAANWTIISLLGGIFVGAMFALAVNEGLPK

As a reminder, the Km is the concentration of substrate that gives half-maximal velocity. The Ki is a dissociation constant, usually derived from enzyme kinetics or from competition with a known ligand.

Compound in one data set: Nc1ncnc2c1ncn2[C@@H]1O[C@H](CO)[C@@H](O)[C@H]1O
In words: (§1) Compound was tested for inhibition of Adenosine transporter P2 type by using [2-3H]adenosine as radioligand in Trypanosoma equiperdum.
For the molecule B1, the Km amounted to 0.7 µM.

In the next data set the target is T1, Adenosine transporter 1 (Trypanosoma brucei, UniProt Q9Y0I0).
T1 sequence (Q9Y0I0 whole entry): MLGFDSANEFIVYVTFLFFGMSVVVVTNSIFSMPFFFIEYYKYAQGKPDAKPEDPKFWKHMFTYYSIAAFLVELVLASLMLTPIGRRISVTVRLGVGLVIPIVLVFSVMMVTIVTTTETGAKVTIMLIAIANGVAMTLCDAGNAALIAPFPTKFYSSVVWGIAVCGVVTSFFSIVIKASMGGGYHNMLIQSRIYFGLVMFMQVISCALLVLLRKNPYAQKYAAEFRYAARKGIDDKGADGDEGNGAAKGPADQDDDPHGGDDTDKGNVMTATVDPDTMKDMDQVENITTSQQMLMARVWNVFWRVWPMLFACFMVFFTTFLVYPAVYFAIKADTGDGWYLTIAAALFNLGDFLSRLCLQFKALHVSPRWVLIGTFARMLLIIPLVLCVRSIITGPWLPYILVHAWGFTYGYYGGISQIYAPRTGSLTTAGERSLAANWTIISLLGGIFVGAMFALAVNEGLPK
The description is as §1.
As for `O=[N+]([O-])OCc1ccccc1`, the inhibition constant (Ki) is > 1000 µM.
The same measure, in the same setting: the figure for `Nc1ncnc2c1ncn2[C@@H]1O[C@H](CO[N+](=O)[O-])[C@@H](O)[C@H]1O` is 12.3 µM.
Same read-out and setting: the value for `Nc1nc(N)c2c(no[n+]2[O-])n1` was 117 µM; that for `CC(=O)N[C@@H](C(=O)O)C(C)(C)SN=O` was > 1000 µM; that for `CC(=O)NC(C(=O)NC[C@H]1OC(n2cnc3c(N)ncnc32)[C@H](O)[C@@H]1O)C(C)(C)SN=O` (some centres not stated) was 3.47 µM.
For `CC(=O)NC(C(=O)NCCn1cnc2c(N)ncnc21)C(C)(C)SN=O` (configuration not stated), the inhibitory constant (Ki) was 0.62 µM.
On the same count and under the same terms, the value for `NCCS[As](SCCN)c1ccc(Nc2nc(N)nc(N)n2)cc1` [CYMELARSEN] was 22.9 µM.
Consider `CC(=O)NC(C(=O)Nc1ccc(Nc2nc(N)nc(N)n2)cc1)C(C)(C)SN=O` (configuration not stated), for which the affinity corresponds to a Ki of 0.58 µM.
`CC(=O)NC(C(=O)Nc1ccc(N)nc1)C(C)(C)SN=O` (configuration not stated): affinity was put at a Ki of 404 µM.
Same read-out and setting: the figure for `Nc1ncnc2c1ncn2CCO[N+](=O)[O-]` is 1.9 µM; for `Nc1nc(N)nc(Nc2ccc(CCO[N+](=O)[O-])cc2)n1` it is 0.2 µM.
